Source: article PMC7429951 (Journal of Medicinal Chemistry, 2020)

How the values were obtained:
[1] = molecular target: peptidase domain of ColH (ColH-PD) (Hathewaya histolytica, UniProt Q46085); assay: biochemical; set-up: species or system Clostridium histolyticum
[2] = molecular target: peptidase domain of ColT (ColT-PD) (Clostridium tetani, UniProt Q899Y1); assay: biochemical; set-up: species or system C. tetani; settings: read-out: ColT-PD % inhibition @ 100 μM
MMP-1 = molecular target: T1, MMP-1 (Homo sapiens, UniProt P03956); assay: MMP-1 off-target inhibition; format: biochemical; settings: read-out: MMP-1 % inhibition @ 100 μM; 100 μM compound
T1 sequence (P03956 100-469): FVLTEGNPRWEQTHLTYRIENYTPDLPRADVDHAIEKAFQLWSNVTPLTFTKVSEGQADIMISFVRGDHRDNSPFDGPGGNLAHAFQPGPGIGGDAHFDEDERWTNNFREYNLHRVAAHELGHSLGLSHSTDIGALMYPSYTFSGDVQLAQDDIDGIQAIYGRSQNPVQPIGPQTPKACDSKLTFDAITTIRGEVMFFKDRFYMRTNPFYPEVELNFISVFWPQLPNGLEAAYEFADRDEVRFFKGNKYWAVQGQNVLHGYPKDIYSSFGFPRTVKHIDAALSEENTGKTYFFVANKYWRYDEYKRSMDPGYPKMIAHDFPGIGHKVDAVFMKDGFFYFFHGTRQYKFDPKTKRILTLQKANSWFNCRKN
Excerpt: (§1) Previously, we described N-aryl mercaptoacetamides with high selectivity for the bacterial over a broad range of human MMPs.[29],[30] MMPs are calcium-dependent zinc metalloproteases that play a pivotal role in numerous biochemical processes in humans.[39],[40] Based on the depth of their S1′ binding pocket, MMPs can be divided into three classes: deep (e.g., MMP-3 and -14), intermediate (e.g., MMP-2 and -8), and shallow (e.g., MMP-1 and -7). With the aim to explore the interactions of our inhibitors with all three pocket types, which could help us to assess potential effects on other not-tested representatives, we chose a panel of six MMPs, comprising two members of each class. In addition, HDAC-3, HDAC-8, and TACE (ADAM-17)—enzymes involved in gene expression and the processing of TNF-α,[41],[42] respectively—were selected as important additional human off-targets.

MMP-2 = molecular target: T2, MMP-2 (Homo sapiens, UniProt P08253); assay: MMP-2 off-target inhibition; format: biochemical
T2 sequence (P08253 110-660): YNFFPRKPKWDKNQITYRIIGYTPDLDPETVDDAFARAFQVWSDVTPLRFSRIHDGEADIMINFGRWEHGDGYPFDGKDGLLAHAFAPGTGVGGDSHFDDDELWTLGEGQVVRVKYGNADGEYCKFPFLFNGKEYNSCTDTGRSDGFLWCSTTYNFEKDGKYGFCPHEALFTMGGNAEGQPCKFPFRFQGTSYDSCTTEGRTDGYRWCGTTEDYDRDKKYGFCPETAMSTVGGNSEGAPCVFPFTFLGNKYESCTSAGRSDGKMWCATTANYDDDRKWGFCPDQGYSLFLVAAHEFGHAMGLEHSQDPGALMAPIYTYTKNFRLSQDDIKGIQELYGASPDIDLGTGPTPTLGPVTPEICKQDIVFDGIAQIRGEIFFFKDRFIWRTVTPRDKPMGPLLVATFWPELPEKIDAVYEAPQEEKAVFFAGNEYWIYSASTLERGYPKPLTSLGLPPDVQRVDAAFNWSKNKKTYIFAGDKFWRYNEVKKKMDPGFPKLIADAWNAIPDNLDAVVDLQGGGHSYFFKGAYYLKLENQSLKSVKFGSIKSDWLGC
Excerpt: as §1

MMP-3 = MMP-3 (Homo sapiens, UniProt P08254); assay: MMP-3 off-target inhibition; format: biochemical; settings: read-out: MMP-3 % inhibition @ 100 μM; 100 μM compound
Excerpt: as §1

MMP-7 = molecular target: T3, MMP-7 (Homo sapiens, UniProt P09237); assay: MMP-7 off-target inhibition; format: biochemical; settings: read-out: MMP-7 % inhibition @ 100 μM; 100 μM compound
T3 sequence (P09237 95-267): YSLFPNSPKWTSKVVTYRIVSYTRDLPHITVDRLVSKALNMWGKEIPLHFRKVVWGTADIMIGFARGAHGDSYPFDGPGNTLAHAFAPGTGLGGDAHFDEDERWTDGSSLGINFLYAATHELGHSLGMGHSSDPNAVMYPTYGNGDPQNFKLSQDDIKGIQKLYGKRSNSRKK
Excerpt: as §1

MMP-8 = MMP-8 (Homo sapiens, UniProt P22894); assay: MMP-8 off-target inhibition; format: biochemical
Excerpt: as §1

HDAC-3 = molecular target: T4, HDAC-3 (Homo sapiens, UniProt O15379); assay: HDAC-3 inhibitor screening kit; format: biochemical
T4 construct: purchased Sigma-Aldrich (Saint Louis, MO)
Excerpt: as §1

HDAC-8 = molecular target: T5, HDAC-8 (Homo sapiens, UniProt Q9BY41); assay: HDAC-8 inhibitor screening kit; format: biochemical
T5 construct: purchased Sigma-Aldrich (Saint Louis, MO)
T5 sequence (Q9BY41 1-377): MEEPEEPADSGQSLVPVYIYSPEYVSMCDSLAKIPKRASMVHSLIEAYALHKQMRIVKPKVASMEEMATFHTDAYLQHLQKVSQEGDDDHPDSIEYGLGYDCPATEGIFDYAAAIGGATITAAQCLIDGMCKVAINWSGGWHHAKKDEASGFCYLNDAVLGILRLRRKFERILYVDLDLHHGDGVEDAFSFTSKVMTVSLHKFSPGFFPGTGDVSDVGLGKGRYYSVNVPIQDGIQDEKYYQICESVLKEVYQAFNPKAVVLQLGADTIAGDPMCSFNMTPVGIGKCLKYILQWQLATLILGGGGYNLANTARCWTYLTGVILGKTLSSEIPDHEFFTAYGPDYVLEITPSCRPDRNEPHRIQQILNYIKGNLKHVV
Excerpt: as §1

LasB [3] = molecular target: T6, LasB (Pseudomonas aeruginosa, UniProt Q02RJ6); settings: vs 4-OMe analogue
in vitro = settings: human, A549 cells (lung carcinoma)
LasB [4] = molecular target: T6, LasB; assay: biochemical; settings: LasB IC50, FRET-based assay

Sequence of peptidase domain of ColH (ColH-PD) (Q46085 331-721 limits assumed): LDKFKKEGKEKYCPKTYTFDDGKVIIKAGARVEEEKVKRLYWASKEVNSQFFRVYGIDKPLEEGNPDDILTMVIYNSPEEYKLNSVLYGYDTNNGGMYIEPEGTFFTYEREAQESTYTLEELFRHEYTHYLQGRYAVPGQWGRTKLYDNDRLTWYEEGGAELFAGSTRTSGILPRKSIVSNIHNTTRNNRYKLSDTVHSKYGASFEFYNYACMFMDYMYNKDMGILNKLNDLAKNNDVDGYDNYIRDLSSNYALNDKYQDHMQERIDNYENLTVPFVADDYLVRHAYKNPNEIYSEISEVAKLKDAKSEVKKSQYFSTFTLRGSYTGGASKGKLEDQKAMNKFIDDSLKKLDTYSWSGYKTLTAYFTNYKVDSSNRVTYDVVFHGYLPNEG
Sequence of MMP-8 (P22894 101-467): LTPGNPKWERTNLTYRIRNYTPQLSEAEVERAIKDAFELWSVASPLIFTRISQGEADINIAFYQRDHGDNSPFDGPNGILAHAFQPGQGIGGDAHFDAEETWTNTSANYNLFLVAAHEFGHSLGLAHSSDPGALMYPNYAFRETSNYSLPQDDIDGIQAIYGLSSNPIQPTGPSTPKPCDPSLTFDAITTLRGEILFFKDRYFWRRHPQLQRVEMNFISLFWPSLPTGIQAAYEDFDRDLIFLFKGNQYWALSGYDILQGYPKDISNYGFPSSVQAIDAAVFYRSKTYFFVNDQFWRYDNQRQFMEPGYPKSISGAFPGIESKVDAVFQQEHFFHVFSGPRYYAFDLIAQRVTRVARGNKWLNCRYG
T6 sequence (Q02RJ6 198-498): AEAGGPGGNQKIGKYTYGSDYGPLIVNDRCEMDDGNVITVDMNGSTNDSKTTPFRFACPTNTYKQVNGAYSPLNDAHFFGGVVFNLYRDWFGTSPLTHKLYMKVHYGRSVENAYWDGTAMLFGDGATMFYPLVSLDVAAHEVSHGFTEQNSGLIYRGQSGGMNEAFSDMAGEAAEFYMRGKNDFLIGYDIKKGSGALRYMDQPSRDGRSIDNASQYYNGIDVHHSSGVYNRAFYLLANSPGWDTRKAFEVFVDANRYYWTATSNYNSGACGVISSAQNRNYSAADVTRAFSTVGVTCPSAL
Sequence of MMP-3 (P08254 100-477): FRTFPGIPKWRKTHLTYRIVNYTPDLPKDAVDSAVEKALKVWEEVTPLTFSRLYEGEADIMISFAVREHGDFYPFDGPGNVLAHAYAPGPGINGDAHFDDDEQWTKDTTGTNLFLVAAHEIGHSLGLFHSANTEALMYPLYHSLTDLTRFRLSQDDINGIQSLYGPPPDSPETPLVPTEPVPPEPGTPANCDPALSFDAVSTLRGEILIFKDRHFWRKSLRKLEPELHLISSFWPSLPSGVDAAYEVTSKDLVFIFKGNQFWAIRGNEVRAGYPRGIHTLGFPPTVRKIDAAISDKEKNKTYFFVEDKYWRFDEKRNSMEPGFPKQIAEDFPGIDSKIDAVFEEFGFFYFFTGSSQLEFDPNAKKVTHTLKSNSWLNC
Sequence of peptidase domain of ColT (ColT-PD) (Q899Y1 340-731 limits assumed): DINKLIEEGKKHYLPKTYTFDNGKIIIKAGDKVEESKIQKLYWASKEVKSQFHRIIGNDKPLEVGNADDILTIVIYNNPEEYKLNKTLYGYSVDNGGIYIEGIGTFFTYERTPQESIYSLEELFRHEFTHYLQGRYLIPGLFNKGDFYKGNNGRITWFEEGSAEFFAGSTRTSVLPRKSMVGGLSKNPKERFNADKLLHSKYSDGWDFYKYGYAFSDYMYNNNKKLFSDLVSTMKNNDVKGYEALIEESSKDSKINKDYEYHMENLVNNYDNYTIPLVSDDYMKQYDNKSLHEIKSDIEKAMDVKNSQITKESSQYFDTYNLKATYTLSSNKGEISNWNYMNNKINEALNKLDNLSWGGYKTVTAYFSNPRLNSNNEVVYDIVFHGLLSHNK
T4 sequence (O15379 whole entry): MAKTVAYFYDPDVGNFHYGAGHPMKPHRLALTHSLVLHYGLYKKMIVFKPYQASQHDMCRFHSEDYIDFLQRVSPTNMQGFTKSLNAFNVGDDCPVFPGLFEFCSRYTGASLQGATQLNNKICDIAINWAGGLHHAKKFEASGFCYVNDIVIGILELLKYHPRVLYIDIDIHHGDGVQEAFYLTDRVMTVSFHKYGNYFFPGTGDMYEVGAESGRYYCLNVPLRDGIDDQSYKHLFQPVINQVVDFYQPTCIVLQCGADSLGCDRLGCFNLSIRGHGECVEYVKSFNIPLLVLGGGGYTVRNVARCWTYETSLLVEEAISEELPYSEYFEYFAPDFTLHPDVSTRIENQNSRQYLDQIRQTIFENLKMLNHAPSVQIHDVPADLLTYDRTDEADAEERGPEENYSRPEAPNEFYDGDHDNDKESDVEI
T4 sequence (Q9Y618 395-489 partner limits assumed): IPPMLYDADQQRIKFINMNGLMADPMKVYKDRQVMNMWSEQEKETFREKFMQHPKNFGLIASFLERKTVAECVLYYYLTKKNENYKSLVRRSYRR

## CC(=O)c1ccc(N2C(=O)CC(S)C2=O)cc1 (stereo not shown) [Compound 25, 1-(4-Acetylphenyl)-3-mercaptopyrrolidine-2,5-dione]
[1]
  IC50: 0.06 ± 0.01 µM
[1]; read-out: ColH-PD % inhibition @ 1 μM
  inhibition at 1 µM: 95%
[1]; read-out: ColH-PD % inhibition @ 100 μM
  inhibition at 100 µM: 96 ± 2%
[2]
  inhibition at 100 µM: 102 ± 3%
MMP-1
  inhibition at 100 µM: < 10%
MMP-2; 50 µM compound, read-out: MMP-2 % inh @50µM
  inhibition at 50 µM: < 10%
MMP-2; read-out: MMP-2 % inhibition @ 100 μM, 100 μM compound
  inhibition at 100 µM: 14 ± 4%
MMP-3
  inhibition at 100 µM: < 10%
MMP-7
  inhibition at 100 µM: < 10%
MMP-8; 50 µM compound, read-out: MMP-8 % inh @50µM
  inhibition at 50 µM: < 10%
MMP-8; read-out: MMP-8 % inhibition @ 100 μM, 100 μM compound
  inhibition at 100 µM: 94 ± 1%
HDAC-3
  IC50: > 100 µM
HDAC-8
  IC50: > 100 µM
LasB [3]
  times more active on LasB than its methoxy-analogue: 1.7 times
In vitro
  IC50: > 100 µM
LasB [4]
  IC50: 64 ± 7.5 µM
